Viability data for 57 compounds are collected here from paper PMC12040169 (PLOS Biology, 2025).

This series is described as follows: in vitro. The note with it: human, hela cells, % viability.

In general, viability refers to a read-out of living cells in per cent, often relative to untreated cells. For `Oc1cccc(-c2nccnc2NCCc2ccccn2)c1` [CBK037388], the viability at 28.5 h, 10 µM came to 104%.
`O=[N+]([O-])c1ccc(CN2CCN(Cc3cccnc3)CC2)cc1` [CBK263161]: the viability at 28.5 h, 10 µM is 109%.
In the case of `O=C(c1ncoc1-c1ccc(F)cc1)N1CCN2CCCC2C1` (stereo not drawn) [CBK282399], the viability at 28.5 h, 10 µM worked out at 90.1%.
With `CN(C(=O)CCC(=O)O)c1ccccc1C(=O)O` [CBK261429] the figure was 104%; with `CC(SCc1ccccc1)C(=O)NCC1CCN(c2ccccc2)C1` (stereo not drawn) [CBK298329], 89.5%; with `O=C1NCCNC(=O)C2(C/C=C/COc3ccccc31)CCCN(Cc1cscn1)C2` (stereo not drawn) [CBK292125], 92.2%.
As to `O=C1O[C@@H](CO)CN1c1ccc(N(Cc2ccccc2)Cc2ccccc2)c(F)c1` [CBK016873], the viability at 28.5 h, 10 µM turned out to be 103%.
With `O=C(Nc1ccc2n(c1=O)C[C@@H]1CNC[C@H]2C1)c1ccc(F)cc1` [CBK289078] the figure was 98.4%; with `Cc1cc2ncc(-c3[nH]ncc3[N+](=O)[O-])cn2n1` [CBK269106], 98.1%.
Regarding `CCCC/C=C/c1cncc(NCCc2c[nH]c3ccccc23)n1` [CBK066081], the viability at 28.5 h, 10 µM came out at 100%.
Turning to `Cc1c(C(=O)Nc2ccccn2)sc2nc(-c3ccccc3)cn12` [CBK287501], the viability at 28.5 h, 10 µM amounted to 98.3%.
On to `CSc1ccc(-n2ncc(-c3ccc(F)cc3F)n2)cc1` [CBK112728], for which the viability at 28.5 h, 10 µM amounted to 91.3%.
`COc1ccc(C(=O)N2CC[C@@H]3NC(=O)[C@H]4C[C@H](NC(=O)C5CCC5)CN4C(=O)[C@H]32)cc1` [CBK289268]: the viability at 28.5 h, 10 µM is 111%.
With `CSCCOc1cc(NC(C)C)ncn1` [CBK115889] the figure was 86.9%; with `CCCc1c(C(=O)N2CCN(C)CC2)cnn1-c1cc(Cl)cc(Cl)c1` [CBK107375], 103%; with `O=C(O)CCCC(=O)OCc1ccco1` [CBK260933], 98.1%.
The result for `O=C(NCC(CO)Cc1ccsc1)N1CCN(c2ccncc2)CC1` (stereo not drawn) [CBK306929] reads 96.7%; that for `CCc1ncsc1C(=O)NC1CCCN(c2ccn(C)n2)C1=O` (stereo not drawn) [CBK306498], 104%; that for `Cc1onc(-c2ccccc2)c1CNC(=O)c1cscn1` [CBK144089], 97.1%.
The result for `CCNc1cc(-c2cncc(OC)c2)ncn1` [CBK090881] reads 101%; that for `COc1cccc(CCNC(=O)CCN2C(=O)CCC2=O)c1` [CBK023150], 91.8%.
For `CC(C)(C)c1csc(Nc2ncc(C(F)(F)F)cc2Cl)n1` [CBK021513], the viability at 28.5 h, 10 µM is 77.5%.
For the compound `O=C(c1ccncc1)N1CCc2cc(S(=O)(=O)N3CCOCC3)ccc21` [CBK287800], the viability at 28.5 h, 10 µM is 92.8%.
The result for `COc1cccc(CN2CC=CCC(C3CCN(c4nc(C)cc(C)n4)CC3)C2=O)c1` (stereo not drawn) [CBK285915] reads 85.6%.
The result for `O=C(NC(=S)N1C[C@@H]2C[C@@H](C1)c1cccc(=O)n1C2)c1ccco1` [CBK288492] reads 110%; that for `C=CCNC(=S)Nc1sc2c(c1C(=O)OCC)CC(C)CC2` (stereo not drawn) [CBK268778], 89.8%.
With `COc1ccc(C(=O)/C=C(\Nc2cccc(C(F)(F)F)c2)C(=O)O)cc1` [CBK264387] the figure was 107%.
As to `COC(=O)COc1ccc(S(=O)(=O)N2CCC(C(N)=O)CC2)cc1` [CBK265993], the viability at 28.5 h, 10 µM worked out at 96.7%.
For the compound `O=C(Nc1ccc2ccccc2c1)N1CCN(C(=O)C2CCCO2)CC1` (stereo not drawn) [CBK044043], the viability at 28.5 h, 10 µM came to 96.6%.
On to `Cc1ccccc1C(=O)N1CCN(Cc2cc(=O)n3ccsc3n2)CC1` [CBK304595], for which the viability at 28.5 h, 10 µM was determined as 90.9%.
The result for `O=C(NC1=NC2CCCCC2N1)c1ccccc1` (stereo not drawn) [CBK266354] reads 103%; that for `Oc1cccc(-c2nccnc2NCc2ccc(Cl)cc2)c1` [CBK037650], 92.8%.
`COc1ccc(C(=O)N2CCC3(CCN(C(=O)CC4CCCCC4)C3)C2)cc1OC` (stereo not drawn) [CBK131770]: the viability at 28.5 h, 10 µM came out at 94.7%.
The result for `CC1(C)CC(N(Cc2c[nH]cn2)Cc2ccccc2F)CC(C)(C)N1` [CBK282579] reads 92.9%; that for `CC(=O)c1sc2nc(-c3ccccc3)nc(C)c2c1N` [CBK115368], 90.5%; that for `c1ccc2cc(-c3cc(Nc4ccc5[nH]ccc5c4)ncn3)ccc2c1` [CBK090853], 80.1%.
Take `O=C(Nc1cccnc1N1CCNCC1)c1cc(F)cc(F)c1` [CBK029420T]: the viability at 28.5 h, 10 µM worked out at 92.3%.
With `O=c1[nH]c2ncc(-c3ccsc3)nc2n1-c1ccc2[nH]ccc2c1` [CBK064650] the figure was 108%.
The result for `COc1cc(NC(=O)c2ccc3c(c2)C(=O)N(c2ccccc2OC)C3=O)c(C(=O)O)cc1OC` [CBK262787] reads 95.1%.
The result for `O=[N+]([O-])c1ccc(-c2ccc(/C=N/Nc3nnc4c(n3)[nH]c3ccccc34)o2)cc1` [CBK262029] reads 90.4%.
As for `CN(C)C(=O)CN1CCC2(CC1)CN(S(C)(=O)=O)c1ccccc12` [CBK126686], the viability at 28.5 h, 10 µM was 97.7%.
The result for `O=C(c1cscn1)N1CCN(CCc2ccccc2)CC1` [CBK200230] reads 106%; that for `COc1ccc([C@@H]2CCN(C(=O)Cc3ccccc3F)C[C@H]2O)cc1` [CBK283756], 100%; that for `CN(CC(=O)N1CCCCCC1)S(=O)(=O)c1cc(Cl)ccc1Cl` [CBK091841], 92.4%.
With `COCCn1c(CN2CCC(Cc3ccccc3)CC2)nc2c1c(=O)n(C)c(=O)n2C` [CBK269378], the viability at 28.5 h, 10 µM came to 99.1%.
The result for `Cc1cc(N2CCC(N3CCN(C)CC3)CC2)nc(N)n1` [CBK167964] reads 94.3%; that for `NC(=O)CN1CCC(Oc2nccnc2OCC2COc3ccccc3O2)CC1` (stereo not drawn) [CBK082987T], 92.1%.
With `COc1cc(CN2C[C@@H](c3ccccc3)[C@@H]3NC(=O)CCCC[C@H]32)cc(OC)c1` [CBK285646] the figure was 89.6%; with `Cc1nc2ccccc2nc1SCc1nc(N)nc(N2CCCCC2)n1` [CBK270218], 92.2%.
With `CN1C[C@@H](NC(=O)Nc2ccccc2)C[C@H]1c1nc(-c2cnccn2)no1` [CBK288851] the figure was 87.5%; with `CC1CCC(C(N)=O)CN1C(=O)c1csc(Br)c1` (stereo not drawn) [CBK305812], 92.3%.
With `CCN(CC)S(=O)(=O)c1c(C)[nH]c(=O)[nH]c1=O` [CBK018721], the viability at 28.5 h, 10 µM is 94.1%.
As to `CC(C(=O)N1CCOCC1)N(c1cc(Cl)ccc1Cl)S(C)(=O)=O` (stereo not drawn) [CBK270270], the viability at 28.5 h, 10 µM was 88.8%.
As for `COc1cccc(CC(=O)N2CCC(Cc3cccc(-c4cccs4)c3)(C(N)=O)CC2)c1` [CBK285738], the viability at 28.5 h, 10 µM amounted to 96.4%.
With `Cc1ccc2cc(CN(Cc3ccco3)C(=O)c3cccs3)c(O)nc2c1` [CBK269274] the figure was 105%; with `O=C(CSc1n[nH]c(=O)[nH]c1=O)N/N=C/c1cccs1` [CBK263508], 98.9%; with `C(=C\c1ccccc1)/CN1CCN(C2CCN(CCc3ccccc3)CC2)CC1` [CBK261923], 108%.
